Results on twelve compounds are retold here after ChEMBL document CHEMBL2331095, “Synthesis and biological activity of 5-chloro-N⁴-substituted phenyl-9H-pyrimido[4,5-b]indole-2,4-diamines as vascular endothelial growth factor receptor-2 inhibitors and antiangiogenic agents” (Bioorg Med Chem, 2013).

The target of assay [1] is Vascular endothelial growth factor receptor 2 (Homo sapiens, UniProt P35968). The format is cell-based, U-251.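 Further: human U251 cells, compound preincubated 60 min before VEGF stimulation, VEGF-induced VEGFR2 tyrosine phosphorylation measured by ELISA after 10 min, value is concentration inhibiting this phosphorylation.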
The target in assay [2] is Platelet-derived growth factor receptor beta (Homo sapiens, UniProt P09619). Nature of the assay: Inhibition of PDGFRbeta in human SF539 cells assessed as inhibition of […] tyrosine phosphorylation incubated for 60 mins prior to PDGF-BB-activation measured 10 mins by ELISA.
In assay [3] the test system is A-431. Nature of the assay: Cytotoxicity against human A431 cells incubated for 12 hrs followed by compound wash out measured 36 hrs by CYQUANT assay. The format is functional, cell-based.
Assay [4] has as its target T1, Epidermal growth factor receptor (Homo sapiens, UniProt P00533). In words: Ratio of sunitinib IC50 to compound IC50 for EGFR in human A431 cells. The format is cell-based. To be noted: A-431.
Assay [5] addresses T1, Epidermal growth factor receptor. The format is cell-based, A-431.

Chain of Platelet-derived growth factor receptor beta (P09619 whole entry): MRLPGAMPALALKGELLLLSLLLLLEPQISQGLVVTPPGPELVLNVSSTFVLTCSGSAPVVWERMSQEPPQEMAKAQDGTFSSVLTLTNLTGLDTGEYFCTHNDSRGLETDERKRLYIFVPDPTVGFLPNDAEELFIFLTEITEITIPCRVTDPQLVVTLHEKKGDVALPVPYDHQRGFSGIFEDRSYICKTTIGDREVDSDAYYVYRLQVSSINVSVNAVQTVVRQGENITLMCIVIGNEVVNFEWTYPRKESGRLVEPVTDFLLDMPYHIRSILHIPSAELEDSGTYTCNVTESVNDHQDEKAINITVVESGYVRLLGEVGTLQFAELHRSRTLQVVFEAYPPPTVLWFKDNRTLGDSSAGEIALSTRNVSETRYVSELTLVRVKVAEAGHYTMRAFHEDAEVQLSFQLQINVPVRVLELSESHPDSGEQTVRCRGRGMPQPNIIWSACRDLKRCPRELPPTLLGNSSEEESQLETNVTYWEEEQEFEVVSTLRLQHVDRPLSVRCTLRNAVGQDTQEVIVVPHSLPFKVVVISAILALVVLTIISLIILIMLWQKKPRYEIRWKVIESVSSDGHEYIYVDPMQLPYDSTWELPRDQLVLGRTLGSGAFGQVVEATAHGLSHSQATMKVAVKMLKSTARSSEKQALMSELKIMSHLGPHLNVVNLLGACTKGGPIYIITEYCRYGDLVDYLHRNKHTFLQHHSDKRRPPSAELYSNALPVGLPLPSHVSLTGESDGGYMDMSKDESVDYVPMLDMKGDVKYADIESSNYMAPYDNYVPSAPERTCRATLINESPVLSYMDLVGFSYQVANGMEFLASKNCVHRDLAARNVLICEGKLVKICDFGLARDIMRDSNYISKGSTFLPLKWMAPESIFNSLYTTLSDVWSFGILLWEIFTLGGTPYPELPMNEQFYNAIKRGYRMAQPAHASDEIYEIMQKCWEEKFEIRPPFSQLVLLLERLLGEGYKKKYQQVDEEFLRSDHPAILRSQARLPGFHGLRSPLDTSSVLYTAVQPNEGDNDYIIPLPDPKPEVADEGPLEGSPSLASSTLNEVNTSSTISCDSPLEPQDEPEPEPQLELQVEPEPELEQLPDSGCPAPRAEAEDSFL
Chain of Vascular endothelial growth factor receptor 2 (P35968 whole entry): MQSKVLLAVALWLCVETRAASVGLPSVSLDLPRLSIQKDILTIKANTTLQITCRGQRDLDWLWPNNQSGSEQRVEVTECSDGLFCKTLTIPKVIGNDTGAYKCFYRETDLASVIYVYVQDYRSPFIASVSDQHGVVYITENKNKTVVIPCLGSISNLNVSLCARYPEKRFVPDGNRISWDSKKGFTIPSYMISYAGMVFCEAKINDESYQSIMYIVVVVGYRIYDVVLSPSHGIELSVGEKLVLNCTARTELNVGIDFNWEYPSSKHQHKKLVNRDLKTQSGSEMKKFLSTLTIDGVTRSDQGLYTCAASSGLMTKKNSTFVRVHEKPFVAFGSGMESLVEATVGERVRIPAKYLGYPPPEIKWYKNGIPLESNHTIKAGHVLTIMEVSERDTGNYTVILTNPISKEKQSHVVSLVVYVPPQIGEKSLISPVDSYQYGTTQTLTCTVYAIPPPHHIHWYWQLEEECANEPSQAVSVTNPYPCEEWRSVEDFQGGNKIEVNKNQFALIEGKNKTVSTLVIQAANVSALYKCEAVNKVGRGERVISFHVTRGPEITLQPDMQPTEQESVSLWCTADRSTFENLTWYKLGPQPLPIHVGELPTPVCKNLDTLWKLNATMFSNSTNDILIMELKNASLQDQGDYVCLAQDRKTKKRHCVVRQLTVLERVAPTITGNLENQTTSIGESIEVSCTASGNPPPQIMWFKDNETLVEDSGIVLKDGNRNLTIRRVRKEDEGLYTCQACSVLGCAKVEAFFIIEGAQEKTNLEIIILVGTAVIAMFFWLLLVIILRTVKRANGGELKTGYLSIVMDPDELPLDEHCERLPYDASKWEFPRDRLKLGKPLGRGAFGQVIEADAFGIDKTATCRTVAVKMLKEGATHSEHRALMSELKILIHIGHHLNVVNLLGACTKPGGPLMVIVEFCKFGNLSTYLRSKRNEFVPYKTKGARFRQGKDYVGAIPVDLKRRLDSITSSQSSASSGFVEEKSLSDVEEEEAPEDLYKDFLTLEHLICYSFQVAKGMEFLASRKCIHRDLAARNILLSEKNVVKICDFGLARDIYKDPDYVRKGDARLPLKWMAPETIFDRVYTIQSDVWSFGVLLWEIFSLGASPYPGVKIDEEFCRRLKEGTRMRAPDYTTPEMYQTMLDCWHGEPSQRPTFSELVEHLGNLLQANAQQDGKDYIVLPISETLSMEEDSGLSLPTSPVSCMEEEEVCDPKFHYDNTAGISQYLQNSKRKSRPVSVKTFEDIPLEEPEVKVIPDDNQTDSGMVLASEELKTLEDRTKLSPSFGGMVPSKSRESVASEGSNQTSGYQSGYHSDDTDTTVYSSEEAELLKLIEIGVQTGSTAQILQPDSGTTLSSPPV
T1 sequence (P00533 whole entry): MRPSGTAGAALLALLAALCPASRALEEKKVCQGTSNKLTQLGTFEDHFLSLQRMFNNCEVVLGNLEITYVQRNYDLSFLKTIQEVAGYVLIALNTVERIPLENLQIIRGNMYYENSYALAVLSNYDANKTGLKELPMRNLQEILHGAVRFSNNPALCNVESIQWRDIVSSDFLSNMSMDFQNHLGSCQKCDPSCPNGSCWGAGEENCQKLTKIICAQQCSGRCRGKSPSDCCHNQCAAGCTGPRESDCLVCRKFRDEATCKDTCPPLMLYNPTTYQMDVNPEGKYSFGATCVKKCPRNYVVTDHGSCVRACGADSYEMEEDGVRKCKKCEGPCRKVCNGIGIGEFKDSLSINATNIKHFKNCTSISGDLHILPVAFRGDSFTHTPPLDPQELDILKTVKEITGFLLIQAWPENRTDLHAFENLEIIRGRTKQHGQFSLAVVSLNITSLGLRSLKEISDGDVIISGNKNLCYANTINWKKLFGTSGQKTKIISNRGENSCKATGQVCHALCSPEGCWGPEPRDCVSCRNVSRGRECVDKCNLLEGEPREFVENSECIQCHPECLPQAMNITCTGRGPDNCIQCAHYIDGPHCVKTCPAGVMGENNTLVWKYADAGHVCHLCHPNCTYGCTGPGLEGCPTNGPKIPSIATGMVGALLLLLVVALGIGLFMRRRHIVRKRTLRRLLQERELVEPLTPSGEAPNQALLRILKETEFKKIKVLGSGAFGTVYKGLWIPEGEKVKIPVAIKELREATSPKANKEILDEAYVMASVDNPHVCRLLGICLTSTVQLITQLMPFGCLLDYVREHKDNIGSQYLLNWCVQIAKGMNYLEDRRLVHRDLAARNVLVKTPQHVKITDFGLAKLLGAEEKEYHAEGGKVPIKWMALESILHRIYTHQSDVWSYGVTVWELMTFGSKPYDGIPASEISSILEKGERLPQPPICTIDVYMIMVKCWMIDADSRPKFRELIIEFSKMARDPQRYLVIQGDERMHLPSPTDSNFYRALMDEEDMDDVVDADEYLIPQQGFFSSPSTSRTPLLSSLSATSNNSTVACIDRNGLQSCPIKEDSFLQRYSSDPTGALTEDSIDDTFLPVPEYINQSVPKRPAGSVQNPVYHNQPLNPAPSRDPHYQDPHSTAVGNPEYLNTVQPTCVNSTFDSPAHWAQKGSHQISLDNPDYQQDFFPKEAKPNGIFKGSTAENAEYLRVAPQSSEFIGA

For `CC(C)c1ccc(Nc2nc(N)nc3[nH]c4cccc(Cl)c4c23)cc1`, the IC50 in assay [1] was 30.3 µM; in assay [2], above 200 µM.

Regarding `Nc1nc(Nc2ccc(Cl)cc2F)c2c(n1)[nH]c1cccc(Cl)c12`, the IC50 in assay [2] was above 200 µM.

Regarding `CC(C)(C)C(=O)Nc1nc(Nc2cccc(F)c2)c2c(n1)[nH]c1cccc(Cl)c12`, the IC50 in assay [1] was 31.2 µM; in assay [2], above 200 µM; in assay [3], above 250 µM; in assay [5], 30.8 µM. Besides, the Ratio IC50 in assay [4] turned out to be 5.5.

Regarding `Nc1nc(Nc2ccccc2)c2c(n1)[nH]c1cccc(Cl)c12`, the IC50 in assay [1] is 124 µM; in assay [2], above 200 µM; in assay [3], 193 µM; in assay [5], above 200 µM.

On to `CC(C)(C)C(=O)Nc1nc(Nc2ccccc2)c2c(n1)[nH]c1cccc(Cl)c12`, for which the IC50 in assay [1] worked out at 192 µM; in assay [2] it was 70.6 µM; in assay [5], 115 µM.

`CC(C)(C)C(=O)Nc1nc(Nc2ccc(Cl)cc2F)c2c(n1)[nH]c1cccc(Cl)c12`: the IC50 in assay [1] was 89.1 µM; in assay [2], 171 µM; in assay [3], above 250 µM; in assay [5], above 200 µM.

Turning to `Nc1nc(Nc2ccc(Cl)cc2)c2c(n1)[nH]c1cccc(Cl)c12`, the IC50 is 13.2 µM in assay [1], 196 µM in assay [2] and 63.6 µM in assay [5].

`COc1cccc(Nc2nc(NC(=O)C(C)(C)C)nc3[nH]c4cccc(Cl)c4c23)c1`: the IC50 was 41 µM in assay [1], 196 µM in assay [2], above 250 µM in assay [3] and 130 µM in assay [5].

For `Nc1nc(Nc2cccc(F)c2)c2c(n1)[nH]c1cccc(Cl)c12`, the figures for the IC50 in assay [1], in assay [2] and in assay [5] were 86.1 µM, 172 µM and above 200 µM, respectively.

Take `CC(C)c1ccc(Nc2nc(NC(=O)C(C)(C)C)nc3[nH]c4cccc(Cl)c4c23)cc1`: the concentration for half-maximal inhibition (IC50) in assay [1] is 47.8 µM; in assay [2], above 200 µM; in assay [3] it was above 250 µM; in assay [5], 39.2 µM.

Consider `COc1cccc(Nc2nc(N)nc3[nH]c4cccc(Cl)c4c23)c1`, for which the IC50 came to 70.1 µM in assay [1], 50.5 µM in assay [2] and 82.9 µM in assay [5]. The Ratio IC50 in assay [4] came to 2.1.

On to `CC(C)(C)C(=O)Nc1nc(Nc2ccc(Cl)cc2)c2c(n1)[nH]c1cccc(Cl)c12`, for which the results for the IC50 in assay [1], in assay [2] and in assay [5] were 21.3 µM, above 200 µM and 58.7 µM, respectively.

By IC50 is commonly meant the concentration at which inhibition is half-maximal.
